A word on the IC50: it is the concentration that gives 50% inhibition. A lower IC50 goes with higher potency.

Structures are written as SMILES.

The assay concerns the target T1, human EP2 (PTGER2) (Homo sapiens, UniProt P43116).
T1 construct: Cayman Chemical (Human EP2 Reporter Assay Kit)
The experiment in a line: EP2 antagonist assay (HEK-293 CNG membrane potential cAMP assay / 293T SEAP reporter assay, PGE2-stimulated). It is filed as cell-based. As to conditions: EP2 antagonist activity; concentration for 50% inhibition of signal compared to DMSO. An outline of the steps:
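Two formats. In a CRE-SEAP reporter assay, reverse-transfected 293T cells received compound with PGE2 (13 nM final) for 6-8 h, then luminescence was read. In the ACTOne CNG format, HEK-293 cells were preincubated with compound for 15 min at RT, stimulated with 5 nM PGE2 for 30 min, and read by membrane-potential dye fluorescence. IC50 was taken versus DMSO.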
(Cyclic AMP is a second messenger, typically raised through Gs and lowered through Gi signalling.)

T1 sequence (P43116 whole entry): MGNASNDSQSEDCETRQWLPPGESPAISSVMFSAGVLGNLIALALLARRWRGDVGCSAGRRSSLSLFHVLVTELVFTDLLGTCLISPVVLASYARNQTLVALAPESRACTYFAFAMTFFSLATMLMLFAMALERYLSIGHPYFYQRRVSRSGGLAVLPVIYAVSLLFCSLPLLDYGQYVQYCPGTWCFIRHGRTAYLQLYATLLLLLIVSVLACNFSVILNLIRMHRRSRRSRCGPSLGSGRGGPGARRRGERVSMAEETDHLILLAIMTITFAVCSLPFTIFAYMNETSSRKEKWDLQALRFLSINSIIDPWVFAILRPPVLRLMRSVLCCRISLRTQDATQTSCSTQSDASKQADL

Regarding `Cn1cc(Sc2ccc(C(F)(F)F)cc2)c2c(C(=O)NCc3ccc(C(=O)O)cc3)cc(-c3cccc(C(N)=O)c3)cc21` [Example 121, 4-((6-(3-carbamoylphenyl)-1-methyl-3-((4-(trifluoromethyl)phenyl)thio)-1H-indole-4-carboxamido)methyl)benzoic acid], the IC50 lay within 100 to 1000 nM.

`O=C(O)c1ccc(CNC(=O)c2cc(-c3ccccc3)cc3ccn(Cc4cccc(C(F)(F)F)c4)c23)cc1` [Example 122, 4-((5-phenyl-1-(3-(trifluoromethyl)benzyl)-1H-indole-7-carboxamido)methyl)benzoic acid]: the half-inhibitory concentration (IC50) was less than 100 nM.

`O=C(O)c1ccc(CNC(=O)c2cc(-c3cccnc3)cc3ccn(Cc4cccc(C(F)(F)F)c4)c23)cc1` [Example 123, 4-((5-(pyridin-3-yl)-1-(3-(trifluoromethyl)benzyl)-1H-indole-7-carboxamido)methyl)benzoic acid]: the IC50 lay in the range of 100 to 1000 nM.

`O=C(O)c1ccc(CNC(=O)c2cc(-c3cc(F)cc(F)c3)cc3ccn(Cc4cccc(C(F)(F)F)c4)c23)cc1` [Example 125, 4-((5-(3,5-difluorophenyl)-1-(3-(trifluoromethyl)benzyl)-1H-indole-7-carboxamido)methyl)benzoic acid] registered an IC50 of less than 100 nM.

`N#Cc1cccc(-c2cc(C(=O)NCc3ccc(C(=O)O)cc3)c3c(ccn3Cc3cccc(C(F)(F)F)c3)c2)c1` [Example 126, 4-((5-(3-cyanophenyl)-1-(3-(trifluoromethyl)benzyl)-1H-indole-7-carboxamido)methyl)benzoic acid] displayed a half-inhibitory concentration (IC50) of less than 100 nM.

`C[C@H](NC(=O)c1cc(-c2cccc(C#N)c2)cc2ccn(Cc3cccc(C(F)(F)F)c3)c12)c1ccc(C(=O)O)cc1` [Example 127, (S)-4-(1-(5-(3-cyanophenyl)-1-(3-(trifluoromethyl)benzyl)-1H-indole-7-carboxamido)ethyl)benzoic acid] came in with an IC50 of less than 100 nM.

The molecule `C[C@H](NC(=O)c1cc(-c2cccnc2)cc2ccn(Cc3cccc(C(F)(F)F)c3)c12)c1ccc(C(=O)O)cc1` [Example 128, (S)-4-(1-(5-(pyridin-3-yl)-1-(3-(trifluoromethyl)benzyl)-1H-indole-7-carboxamido)ethyl)benzoic acid] showed a 50% inhibitory concentration (IC50) of less than 100 nM.

For `C[C@H](NC(=O)c1cc(-c2cc(F)cc(F)c2)cc2ccn(Cc3cccc(C(F)(F)F)c3)c12)c1ccc(C(=O)O)cc1` [Example 130, (S)-4-(1-(5-(3,5-difluorophenyl)-1-(3-(trifluoromethyl)benzyl)-1H-indole-7-carboxamido)ethyl)benzoic acid], the IC50 is less than 100 nM.

Take `O=C(O)c1ccc(C2(NC(=O)c3cc(-c4ccccc4)cc4ccn(Cc5cccc(C(F)(F)F)c5)c34)CC2)cc1` [Example 131, 4-(1-(5-phenyl-1-(3-(trifluoromethyl)benzyl)-1H-indole-7-carboxamido)cyclopropyl)benzoic acid]: the IC50 fell in the range of 100 to 1000 nM.

Take `O=C(O)c1ccc(C2(NC(=O)c3cc(-c4cc(F)cc(F)c4)cc4ccn(Cc5cccc(C(F)(F)F)c5)c34)CC2)cc1` [Example 132, 4-(1-(5-(3,5-difluorophenyl)-1-(3-(trifluoromethyl)benzyl)-1H-indole-7-carboxamido)cyclopropyl)benzoic acid]: the IC50 was in the range of 100 to 1000 nM.

For `N#Cc1cccc(-c2cc(C(=O)NC3(c4ccc(C(=O)O)cc4)CC3)c3c(ccn3Cc3cccc(C(F)(F)F)c3)c2)c1` [Example 133, 4-(1-(5-(3-cyanophenyl)-1-(3-(trifluoromethyl)benzyl)-1H-indole-7-carboxamido)cyclopropyl)benzoic acid], the half-inhibitory concentration (IC50) lay within 100 to 1000 nM.

`O=C(O)c1ccc(CNC(=O)c2cc(-c3ccc(F)cc3)cc3cnn(Cc4cccc(C(F)(F)F)c4)c23)cc1` [Example 138, 4-((5-(4-fluorophenyl)-1-(3-(trifluoromethyl)benzyl)-1H-indazole-7-carboxamido)methyl)benzoic acid] showed an IC50 of less than 100 nM.

In turn, `O=C(O)c1ccc(CNC(=O)c2cc(-c3cc(F)cc(F)c3)cc3cnn(Cc4cccc(C(F)(F)F)c4)c23)cc1` [Example 139, 4-((5-(3,5-difluorophenyl)-1-(3-(trifluoromethyl)benzyl)-1H-indazole-7-carboxamido)methyl)benzoic acid] yielded an IC50 of less than 100 nM.

The molecule `O=C(O)c1ccc(C2(NC(=O)c3cc(-c4ccccc4)cc4cnn(Cc5cccc(C(F)(F)F)c5)c34)CC2)cc1` [Example 140, 4-(1-(5-phenyl-1-(3-(trifluoromethyl)benzyl)-1H-indazole-7-carboxamido)cyclopropyl)benzoic acid] showed an IC50 of 100 to 1000 nM.

`O=C(O)c1ccc(CNC(=O)c2cc(-c3ccc(F)cc3)cc3ccn(Cc4ccc5ccccc5n4)c23)cc1` [Example 142, 4-((5-(4-fluorophenyl)-1-(quinolin-2-ylmethyl)-1H-indole-7-carboxamido)methyl)benzoic acid]: the IC50 is less than 100 nM.

Consider `C[C@H](NC(=O)c1cc(-c2ccccc2)cc2ccn(Cc3ccc4ccccc4n3)c12)c1ccc(C(=O)O)cc1` [Example 143, (S)-4-(1-(5-phenyl-1-(quinolin-2-ylmethyl)-1H-indole-7-carboxamido)ethyl)benzoic acid], for which the 50% inhibitory concentration (IC50) is less than 100 nM.

Consider `C[C@H](NC(=O)c1cc(-c2ccc(F)cc2)cc2ccn(Cc3ccc4ccccc4n3)c12)c1ccc(C(=O)O)cc1` [Example 144, (S)-4-(1-(5-(4-fluorophenyl)-1-(quinolin-2-ylmethyl)-1H-indole-7-carboxamido)ethyl)benzoic acid], for which the IC50 was less than 100 nM.

The molecule `O=C(O)c1ccc(CNC(=O)c2cc(-c3ccccc3)cc3ccn(Cc4cccc(-c5ccccc5)c4)c23)cc1` [Example 145, ((1-([1,1′-biphenyl]-3-ylmethyl)-5-phenyl-1H-indole-7-carboxamido)methyl)benzoic acid] registered an IC50 of less than 100 nM.

In turn, `COc1cccc(Cn2ccc3cc(-c4ccccc4)cc(C(=O)NCc4ccc(C(=O)O)cc4)c32)c1` [Example 146, 4-((1-(3-methoxybenzyl)-5-phenyl-1H-indole-7-carboxamido)methyl)benzoic acid] showed an IC50 of less than 100 nM.

In turn, `O=C(O)c1ccc(CNC(=O)c2cc(-c3ccc(F)cc3)cc3ccn(Cc4ccc(-c5ccccc5)cc4)c23)cc1` [Example 148, 4-((1-([1,1′-biphenyl]-4-ylmethyl)-5-(4-fluorophenyl)-1H-indole-7-carboxamido)methyl)benzoic acid] returned an IC50 of less than 100 nM.

The molecule `O=C(O)c1ccc(CNC(=O)c2ccc(Nc3ccccc3)c3ccn(Cc4ccc5ccccc5n4)c23)cc1` [Example 153, 4-((4-(phenylamino)-1-(quinolin-2-ylmethyl)-1H-indole-7-carboxamido)methyl)benzoic acid] gave an IC50 of less than 100 nM.

In the case of `COc1cccc(Cn2ccc3c(Nc4ccccc4)ccc(C(=O)NCc4ccc(C(=O)O)cc4)c32)c1` [Example 155, 4-((1-(3-methoxybenzyl)-4-(phenylamino)-1H-indole-7-carboxamido)methyl)benzoic acid], the IC50 is less than 100 nM.

With `O=C(O)c1ccc(CNC(=O)c2cc(-c3cc(F)cc(F)c3)cc3cnn(Cc4ccc5ccccc5c4)c23)cc1` [Example 157, 4-((5-(3,5-difluorophenyl)-1-(naphthalen-2-ylmethyl)-1H-indazole-7-carboxamido)methyl)benzoic acid], the IC50 was less than 100 nM.
